Values belong to the sequence of their own block, whether it stands above or below them.
How the values were obtained:
Format in all cases: biochemical, human
PCT [1] = assay: Luciferase dual-antibody complementary activation assay for PCT detection, clone supernatants, retest with CTZ-h (Example 1); conditions: for Signal-to-noise ratio: RLU antigen+/RLU antigen-, MBP-PCT 3.3 ng/ml, CTZ-h; for PCT+: luminescence signal value with MBP-PCT 3.3 ng/ml, large subunit-rSCFV5 50 nM, supernatant; for PCT+ / PCT-: retest CTZ-h 25 µM, read after 60 s; for PCT-: luminescence signal value, background control PBSAD without PCT
Protocol: In order to improve the signal-to-noise ratio and complementary activity of the luciferase dual-antibody complementary activation assay, a series of complementary luciferase small subunits were prepared in this example. Large subunit-rSCFV5 fusion protein (SEQ ID NO: 87) was kept unchanged, and the small subunit sequence of the rSCFV18-small subunit P114 fusion protein (SEQ ID NO: 88) was modified by semi-randomization to prepare rSCFV18-small subunit mutant fusion proteins. Based on the sequence of small subunit P114, and with reference to the 3D structure of complementary luciferase, computer-aided sequence design was employed to generate a library with a theoretical diversity of 2.49*10^6. Primers were designed for PCR amplification using the plasmid pComb3x of rSCFV18-small subunit P114 fusion protein as a template. Subsequently, an expression vector library was constructed by means of restriction digestion and ligation (SfiI, NheI), and a semi-random amino acid mutation library was introduced into the small subunit position and transformed into HB2151 competent cells, yielding a library capacity of 7.6*10^9. The 100 plates were spread, and 9,500 single clones were picked and inoculated into 600 µL of 2YTA medium, followed by incubation at 37°C with shaking at 250 rpm for 2 h. When the bacterial density reached approximately OD600 = 0.6~1.0, IPTG was then added to a final concentration of 1 mM, and the culture was further incubated at 30°C with shaking at 250 rpm for 20 h. The next day, the bacteria were collected by centrifugation at 4°C, 4,500g for 10min. The supernatant was discarded, and the precipitate was resuspended with 200µl of PBS containing polymyxin B at a final concentration of 20,000 u/ml. The suspension was incubated at room temperature with shaking at 100rpm for 1h, and then centrifuged at 4500g for 10min, and the supernatant was used for the test.
Test Methods: • (1) The concentration of large subunit-rSCFV5 fusion protein was diluted to 50 nM, and 15 µl was added per well; • (2) MBP-PCT fusion protein was diluted to 3.3 ng/ml with PBSAD, and 15 µl was added per well. The background control was PBSAD, and 10 µl was added per well; • (3) HB2151 strain containing expression plasmids with different small subunit were induced by 1 mM of IPTG at 30°C overnight, then treated with polymyxin B for 1.5 h, and centrifuged to collect the supernatant, and 2.5 µl supernatant was added per well; • (4) The above three components were slightly mixed, incubated at 37°C for 7 min, and Obuffer 6.37-3 containing Furimazine at a concentration of 25 µM was added, and after 80 s, the luminescence signal value was detected using a bioluminescence detector; and • (5) Clones with RLU higher than 10,000 and a signal-to-noise ratio (RLU antigen+/RLU antigen-) higher than that of the rSCFV18-small subunit P114 fusion protein were selected for retesting. The substrate was replaced with CTZ-h for retesting. Obuffer 6.37-3 containing CTZ-h at a concentration of 25 µM was added, and after 60 s, the luminescence signal value was detected using a bioluminescence detector.

PCT [2] = assay: Complementation of purified rSCFV18-small subunit mutant fusion protein with large subunit-rSCFV5 fusion protein, PCT gradient (Example 2); conditions: for luminescence value: CTZ-h 25 µM, 20 s; for Signal-to-noise ratio at 1000 pg/ml: PCT 1000 pg/ml versus 0
Protocol: Protein expression and purification of small subunit mutants: The strains containing plasmids of different small subunits inTable 2, prepared in Example 1, were inoculated into 200ml of 2YTA medium and cultured at 37°C with shaking at 250 rpm for about 3h. When the OD600 reached 1.0, IPTG was added to a final concentration of 1mM, and the culture was further incubated at 30°C with shaking at 250rpm for 20h. The culture were centrifuged at 5,000g for 10min, and the precipitate was resuspended with 10ml of PBS, added with polymyxin B to 20,000u/ml. The suspension was inverted and mixed at room temperature for 1h, and centrifuged at 10,000g to collect the supernatant. The rSCFV18-small subunit mutant fusion protein was purified according to the standard procedure for his-tag protein purification using Ni-NTA resin.
In the same tube, the large subunit-rSCFV5 fusion protein was diluted with PBSA to 50 nM; rSCFV18-small subunit mutant fusion protein was diluted to 90 nM, mixed well, and then 22 µl was added per well; the MBP-PCT fusion protein was diluted in 3-fold gradient with PBSAD (in pg/ml), with 8 gradients in total, 10µl was added per well, and the background control was PBSAD and 10 µl was added per well; the plate was mixed with slight shaking and incubated at 37°C for 6 min, 50 µl of Obuffer 6.37-3 containing 25 µM of CTZ-h then was added, and after 20 s, the luminescence value was detected.

PCT [3] = assay: Signal-to-noise ratio and linear range for PCT detection, purified fusion proteins (Example 3); design: key to luminescence value: luminescence normalized against the background value; conditions: for Signal-to-noise ratio at 1000 pg/ml: large subunit 100 nM, small subunit fusion 180 nM, CTZ-h 25 µM, 140 s; for signal-to-noise ratios in luciferase dual-antibody complementary activation for PCT detection: statement in words on Table 3 and Figure 2
Protocol: Test Methods: • (1) MBP-PCT protein was diluted with PBSAD in 10-fold gradient starting from 100 ng/ml, with 8 gradients in total, and 10 µl was added per well; • (2) The large subunit-SCFV5 fusion protein was diluted with PBSA to 100 nM, and 10 µl was added per well; • (3) Different rSCFV18-small subunit mutant fusion proteins were diluted with PBSA to 180 nM, and 10 µl of each was added per well; • (4) The plate was mixed slightly and incubated at 37°C for 10 min; and • (5) 50 µl of Obuffer 6.37-3 containing 25 µM of CTZ-h was added, and after 140 s, the luminescence value was detected. The results are shown after normalization against the background value.

PCT [4] = assay: as above; design: key: luminescence normalized against the background value; conditions: PCT 3.3 (pg/ml); normalized against the background value
[5] = PCT 0 pg/ml (background control PBSAD)
[6] = PCT 1000 pg/ml, large subunit 50 nM, small subunit fusion 90 nM
[7] = PCT 100 (pg/ml), normalized against the background value
[8] = PCT 1000 (pg/ml), normalized against the background value
[9] = PCT 10000 (pg/ml), normalized against the background value
[10] = PCT 100000 (pg/ml), normalized against the background value

Sequence: VEGYRLFEKVW [RB085]
Signal-to-noise ratio (PCT [1]): 38.2 | PCT+ (PCT [1]): 47227 | PCT- (PCT [1]): 1206 | luminescence value (PCT [2]; [5]): 337 | luminescence value (PCT [2]; PCT 1.37 pg/ml): 384 | luminescence value (PCT [2]; PCT 4.12 pg/ml): 445 | luminescence value (PCT [2]; PCT 12.35 pg/ml): 556 | luminescence value (PCT [2]; PCT 37.04 pg/ml): 932 | luminescence value (PCT [2]; PCT 111.1 pg/ml): 2102 | luminescence value (PCT [2]; PCT 333.3 pg/ml): 5551 | Signal-to-noise ratio at 1000 pg/ml (PCT [2]): 45.8 | luminescence value (PCT [2]; [6]): 15446 | luminescence value (PCT [3]; PCT 0, background, normalized): 5000 | luminescence value (PCT [3]; [7]): 11950 | luminescence value (PCT [3]; [8]): 69595 | luminescence value (PCT [3]; [9]): 554514 | luminescence value (PCT [3]; [10]): 1830312 | Signal-to-noise ratio at 1000 pg/ml (PCT [3]): 13.9 | signal-to-noise ratios in luciferase dual-antibody complementary activation for PCT detection (PCT [3]): higher signal-to-noise ratios | luminescence value (PCT [4]): 5486

Sequence: VSGWRIHEKIS [RA120]
Signal-to-noise ratio (PCT [1]): 36.9 | PCT+ (PCT [1]): 81063 | PCT- (PCT [1]): 2139 | luminescence value (PCT [3]; PCT 0, background, normalized): 5000 | luminescence value (PCT [3]; [7]): 13450 | luminescence value (PCT [3]; [8]): 90072 | luminescence value (PCT [3]; [9]): 694625 | luminescence value (PCT [3]; [10]): 1999707 | Signal-to-noise ratio at 1000 pg/ml (PCT [3]): 18.0 | signal-to-noise ratios in luciferase dual-antibody complementary activation for PCT detection (PCT [3]): higher signal-to-noise ratios | luminescence value (PCT [4]): 5257

Sequence: VEGWRLHEKIS [RA116]
Signal-to-noise ratio (PCT [1]): 45.5 | PCT+ (PCT [1]): 55957 | PCT- (PCT [1]): 1204 | luminescence value (PCT [2]; [5]): 362 | luminescence value (PCT [2]; PCT 1.37 pg/ml): 406 | luminescence value (PCT [2]; PCT 4.12 pg/ml): 473 | luminescence value (PCT [2]; PCT 12.35 pg/ml): 602 | luminescence value (PCT [2]; PCT 37.04 pg/ml): 1212 | luminescence value (PCT [2]; PCT 111.1 pg/ml): 2700 | luminescence value (PCT [2]; PCT 333.3 pg/ml): 7341 | Signal-to-noise ratio at 1000 pg/ml (PCT [2]): 56.6 | luminescence value (PCT [2]; [6]): 20492 | luminescence value (PCT [3]; PCT 0, background, normalized): 5000 | luminescence value (PCT [3]; [7]): 11673 | luminescence value (PCT [3]; [8]): 69976 | luminescence value (PCT [3]; [9]): 515360 | luminescence value (PCT [3]; [10]): 1784513 | Signal-to-noise ratio at 1000 pg/ml (PCT [3]): 14.0 | signal-to-noise ratios in luciferase dual-antibody complementary activation for PCT detection (PCT [3]): higher signal-to-noise ratios | luminescence value (PCT [4]): 5301

Sequence: VDGWRLHEKIS [RA141]
Signal-to-noise ratio (PCT [1]): 65.1 | PCT+ (PCT [1]): 30623 | PCT- (PCT [1]): 463 | luminescence value (PCT [3]; PCT 0, background, normalized): 5000 | luminescence value (PCT [3]; [7]): 8685 | luminescence value (PCT [3]; [8]): 42762 | luminescence value (PCT [3]; [9]): 333241 | luminescence value (PCT [3]; [10]): 1399433 | Signal-to-noise ratio at 1000 pg/ml (PCT [3]): 8.6 | signal-to-noise ratios in luciferase dual-antibody complementary activation for PCT detection (PCT [3]): higher signal-to-noise ratios | luminescence value (PCT [4]): 5414

Sequence: VEGYRLFDRKL [RB135]
Signal-to-noise ratio (PCT [1]): 43.7 | PCT+ (PCT [1]): 35245 | PCT- (PCT [1]): 788 | luminescence value (PCT [2]; [5]): 380 | luminescence value (PCT [2]; PCT 1.37 pg/ml): 367 | luminescence value (PCT [2]; PCT 4.12 pg/ml): 422 | luminescence value (PCT [2]; PCT 12.35 pg/ml): 575 | luminescence value (PCT [2]; PCT 37.04 pg/ml): 943 | luminescence value (PCT [2]; PCT 111.1 pg/ml): 2137 | luminescence value (PCT [2]; PCT 333.3 pg/ml): 5480 | Signal-to-noise ratio at 1000 pg/ml (PCT [2]): 40.0 | luminescence value (PCT [2]; [6]): 15181 | luminescence value (PCT [3]; PCT 0, background, normalized): 5000 | luminescence value (PCT [3]; [7]): 11916 | luminescence value (PCT [3]; [8]): 67860 | luminescence value (PCT [3]; [9]): 536667 | luminescence value (PCT [3]; [10]): 1936894 | Signal-to-noise ratio at 1000 pg/ml (PCT [3]): 13.6 | luminescence value (PCT [4]): 5698

Second part, led by results:

Signal-to-noise ratio (PCT [1]): 12.2 | PCT+ (PCT [1]): 3993 | PCT- (PCT [1]): 302 | signal-to-noise ratios in luciferase dual-antibody complementary activation for PCT detection (PCT [3]): higher signal-to-noise ratios
Sequence: VEGYRLFNKEW [RB284]
luminescence value (PCT [3]; PCT 0, background, normalized): 5000 | luminescence value (PCT [3]; [7]): 7039 | luminescence value (PCT [3]; [8]): 24677 | luminescence value (PCT [3]; [9]): 187742 | luminescence value (PCT [3]; [10]): 861878 | Signal-to-noise ratio at 1000 pg/ml (PCT [3]): 4.9 | luminescence value (PCT [4]): 5288

Signal-to-noise ratio (PCT [1]): 67.7 | PCT+ (PCT [1]): 31936 | PCT- (PCT [1]): 465 | signal-to-noise ratios in luciferase dual-antibody complementary activation for PCT detection (PCT [3]): higher signal-to-noise ratios
Sequence: VEGYRLFDKKW [RB239]
luminescence value (PCT [2]; [5]): 288 | luminescence value (PCT [2]; PCT 1.37 pg/ml): 301 | luminescence value (PCT [2]; PCT 4.12 pg/ml): 332 | luminescence value (PCT [2]; PCT 12.35 pg/ml): 407 | luminescence value (PCT [2]; PCT 37.04 pg/ml): 590 | luminescence value (PCT [2]; PCT 111.1 pg/ml): 1318 | luminescence value (PCT [2]; PCT 333.3 pg/ml): 3364 | Signal-to-noise ratio at 1000 pg/ml (PCT [2]): 31.1 | luminescence value (PCT [2]; [6]): 8952 | luminescence value (PCT [3]; PCT 0, background, normalized): 5000 | luminescence value (PCT [3]; [7]): 11004 | luminescence value (PCT [3]; [8]): 57648 | luminescence value (PCT [3]; [9]): 466004 | luminescence value (PCT [3]; [10]): 2167580 | Signal-to-noise ratio at 1000 pg/ml (PCT [3]): 11.5 | luminescence value (PCT [4]): 5622

From patent publication EP4700040A1, “PEPTIDE AND LUMINESCENT COMPLEX CONTAINING SAME” (Shenzhen Loggene Life Science & Technology Co., Ltd., priority 2023, dated 2024)
